Data from patent US4472428A, “Halogenated prostacyclins pharmaceutical use thereof and hydroxy intermediates therefore” (Teijin Limited, priority 1980, dated 1984).
Values after ≈ are worked out from the molar mass of the structure shown. Counter-ions that a name gives are not always drawn. Like-named read-outs stand apart in the source and are kept apart here.

Columns and labels:
platelet aggregation [1] = assay: in vitro inhibitory activity of platelet aggregation (ADP-induced, rabbit PRP); format: cell-based, rabbit (Japanese domestic white male); conditions: for platelet aggregation inhibiting activity (in words): general statement; for IC50: Oryctolagus cuniculus, Platelet, rabbit PRP, 10 μM ADP, 37° C., read-out: IC50 (minimum concentration which inhibited more than 50% of platelet aggregation)
Experimental: (1) in vitro inhibitory activity of platelet aggregation:
The in vitro platelet aggregation inhibiting activities of the compounds of the invention were examined by using rabbits. Blood was withdrawn from the ear vein of Japanese domestic white male rabbits weighing 2.5 to 3.5 kg. A mixture of a 3.8% trisodium citrate solution and the blood in a ratio of 1:9 was centrifuged at a speed of 1000 rpm for 10 minutes. The upper layer was separated as platelet-rich plasma (PRP). The lower layer was further centrifuged at a speed of 2800 rpm for 10 minutes. The upper layer was separated as platelet-poor plasma (PPP). The number of platelets was adjusted to 6×10^5 /μl to 7×10^5 /μl by diluting the PRP with PPP. 25 microliters of the test compounds prepared as shown below was added in an amount of 25 to 250 microliters of PRP after the adjustment, and the mixture was pre-incubated at 37° C. for 2 minutes, and then 10 μM (final) of ADP was added. By using an aggregometer, changes in transmission were recorded.
The drug was dissolved in ethanol to a concentration of 10 mg/ml. When its activity was measured, it was used after being diluted with phosphate buffer (pH 7.4). Furthermore, after dilution with the buffer, the drug was left to stand at 0° C. for 4 hours, and the activity of the drug was similarly measured.
The rate of inhibition of platelet aggregation was determined from the following equation.
Inhibition rate (%)=(1-T/To)×100
To : the transmittance of the system containing the phosphate buffer,
T: the transmittance of the system to which the test drug was added.
The minimum concentration of the drug which inhibited more than 50% of platelet aggregation was shown as an IC50 value.

blood pressure [2] = assay: hypotensive activity, intravenous injection in anesthetized rats; format: in vivo, rats (male wister); conditions: for blood pressure lowering activity (in words): general statement; for ED20: Rattus norvegicus, iv, anesthetized rats, read-out: P-ED20 (dosage causing a 20% lowering of the mean blood pressure)
Experimental: (§1) Measurement of the hypotensive activity:
(§2) The actions of the prostacyclin derivatives of the invention on the blood pressure and heart rate of rats were examined by intravenous injection under anesthesia.
(§3) Male wister rats weighing about 250 g were used. Urethane (500 mg/kg) and α-chloralose (100 mg/kg) were intraperitoneally administered to the rats. The rats were anesthetized and fixed in place.
(§4) Each of the test compounds was dissolved in a small amount of ethanol and diluted with 0.05M Tris buffer saline (pH 9) to adjust the final ethanol concentration to not more than 5%. The solution was intravenously injected into the rats through a catheter inserted into the femoral vein.
(§5) The blood pressure of the rats was measured by a pressure transducer through a catheter inserted into the carotid artery of the rats. The heart rate was determined from the blood pressure pulse.
(§6) The action of the test compound on the blood pressure was expressed as the dosage (P-ED20, μg/kg) of the test compound which caused a 20% lowering of the mean blood pressure before administration of the compound. The action of the test compound on the heart rate was expressed as the dosage (H-ED10, μg/kg) of the test compound which caused a 10% increase of the heart rate from the heart rate before administration of the test compound.

[3] = chemical stability at pH 7.4 (half period from UV absorption at 210 nm); format: physicochemical; conditions: pH 7.4 phosphate buffer, room temperature, UV 210 nm
Experimental: Test for the chemical stability of (5E)-5-chloro-PGI2 sodium salt (No. 686) and (5Z)-5-chloro-PGI2 sodium salt (No. 5Z-686):
6.54 ml of 0.02M potassium dihydrogen phosphate and 29.0 ml of 0.01M disodium hydrogen phosphate were mixed, and the pH of the mixture was measured by a pH meter.
The solution of (5E)-5-chloro-PGI2 sodium salt obtained in Example 35 and the solution of (5Z)-5-chloro-PGI2 sodium salt obtained in Example 36 were each added to the above buffer mixture, and their UV spectra were periodically recorded at room temperature. From the absorption values at 210 nm, the half periods of these salts were determined.

[4] = system: blood pressure / platelet aggregation; assay: ratio of the blood pressure lowering activity and the platelet aggregation inhibiting activity; set-up: species or system rats (blood pressure); rabbits (platelets); conditions: for P-ED20 / platelet IC50: P-ED20 rats i.v., IC50 rabbit platelets in vitro; for selectivity of pharmacological activity (in words): compared with PGI2
Experimental: (2) From the results obtained in Examples 100 and 101, the ratio of the blood pressure lowering activity and the platelet aggregation inhibiting activity was calculated. The result is shown in Table 3 together with the ratio obtained with PGI2.

heart rate = assay: action on heart rate, intravenous injection in anesthetized rats; format: in vivo, rats (male wister); conditions: Rattus norvegicus, i.v., read-out: H-ED10 (dosage causing a 10% increase of the heart rate)
Experimental: as §1, §2, §3, §4, §5, §6

Lewis lung carcinoma = assay: activity of inhibiting metastasis of a malignant tumor; format: in vivo, mice
Experimental: Measurement of the activity of inhibiting metastasis of a malignant tumor:
Mice were used as experimental animals. Lewis lung carcinoma (4×10^5 cells/100 μl) was transplanted into the foot pad of each mouse. For seven days from the 5th to the 11th day after the transplantation, the compound No. 686 of the invention was intraperitoneally administered to the mouse once a day. On the 12th day, the foot at the primary nest was cut off, and the weight of the cut foot (primary nest portion) was measured. On the 20th day after the transplantation, the number of nests which metastasized to the lungs was measured.

platelet aggregation [5] = assay: extra vivo inhibitory activity of platelet aggregation after intraduodenal administration; format: in vivo, SD strain rats; conditions: for inhibition (%) (rate of platelet aggregation inhibition): 3 mg/kg i.d., blood drawn 30 min after administration, ADP, N 4
Experimental: extra vivo inhibitory activity of platelet aggregation:
The extra vivo platelet aggregation inhibitory activity of the prostacyclin derivatives of the invention were measured by using […]. The test compound of the invention in ethanol was diluted with 0.05M Tris buffer (pH 9.0) and as a control, only the 0.05M Tris buffer solution was used. These solutions were each intraduodenally administered in a dose of 1 ml/kg to SD strain rats weighing about 200 g which had been fasted for 16 hours. Thirty minutes after the administration, blood was drawn off from the aorta using trisodium citrate so that the ratio of the blood to 3.8% trisodium citrate was 9:1. The blood was centrifuged at a speed of 800 rpm for 10 minutes. The upper layer was separated as platelet-rich plasma (PRP). The lower layer was further centrifuged at a speed of 2800 rpm for 10 minutes. The upper layer was separated as platelet poor plasma (PPP). 250 microliters of the resulting PRP was taken into an aggregometer cuvette, and incubated at 37° C. for 2 minutes. Then, 25 microliters of a 1.25 μM ADP disodium solution adjusted by dissolving with 0.1M tris-HCl buffer (pH 8.0) was added. The aggregation curve was recorded for 3 minutes. The maximum degree of aggregation of platelets within this time period was read, and the rate of inhibition of platelet aggregation was calculated from the following equation.
Rate of platelet aggregation inhibition (%)=(1-(TD /TC)×100
TC : the transmittance of the control glroup (to which only the 0.05M Tris buffer solution was administered),
TD : the transmittance of the drug administered group.

blood pressure [6] = assay: action on blood pressure, intraduodenal administration to conscious rats; format: in vivo, rats (male SD); conditions: for mean blood pressure: N 4
Experimental: The prostocyclin derivatives of the invention were intraduodenally administered to conscious rats, and their action on the blood pressure was examined.
Male SD rats weighing about 200 g were used as experimental animals. These rats had been fasted for 16 hours before the start of the experiment. A catheter was inserted into the femoral artery of the rats under ether anesthesia, and then the rats were restrained within a Bollman cage. After more than 1 hour from awakening, each of the test compounds was intraduodenally administered.
The test compound was dissolved in a small amount of ethanol, and then diluted with 0.05M Tris buffer (pH 9) to adjust the final concentration of ethanol to not more than 5%. The mean blood pressure was measured by meaans of a pressure transducer through the catheter inserted into the femoral artery.

[7] = 4 hr standing at 0° C. after dilution with phosphate buffer pH 7.4
[8] = 10 μg/kg/day i.p., day 5 to 11, 5 animals

5-Chloro-PGI2 [Compound 500]
platelet aggregation inhibiting activity (in words) (platelet aggregation [1]): high platelet aggregation inhibiting activity
blood pressure lowering activity (in words) (blood pressure [2]): low blood pressure lowering activity

CCCCCC(O)C=CC1C(O)CC2OC(=C(Cl)CCCC(=O)O)CC21 (stereo not drawn) [Compound 5Z-686, (5Z)-5-chloro-PGI2, sodium salt]
half period [3]: more than 1 month

CCCCCC(O)C=CC1C(O)CC2OC(=CCCCC(=O)O)C(F)C21 (stereo not drawn) [Compound 501, 7-Fluoro-PGI2]
platelet aggregation inhibiting activity (in words) (platelet aggregation [1]): high platelet aggregation inhibiting activity
blood pressure lowering activity (in words) (blood pressure [2]): low blood pressure lowering activity

CCCCCC(O)C=CC1C(O)CC2OC(=C(Cl)CCCC(=O)OC)CC21 (stereo not drawn) [Compound 636, (5E)-5-chloro-PGI2 methyl ester]
IC50 (platelet aggregation [1]; 0 hr): 0.62 µg/mL (≈ 1.55 µM)
IC50 (platelet aggregation [1]; [7]): 0.51 µg/mL (≈ 1.27 µM)

CCCCCC(O)C=CC1C(O)CC2OC(=CCCCC(=O)OC)C(F)C21 (stereo not drawn) [Compound 637, 7-fluoro-PGI2 methyl ester]
IC50 (platelet aggregation [1]; 0 hr): 0.34 µg/mL (≈ 0.884 µM)
IC50 (platelet aggregation [1]; [7]): 0.38 µg/mL (≈ 0.988 µM)

CCCCCC(O)C=CC1C(O)CC2OC(=C(Cl)CCCC(=O)O)CC21 (stereo not drawn) [Compound 686, (5E)-5-chloro-PGI2, sodium salt]
P-ED20 / platelet IC50 [4]: 17.1
selectivity of pharmacological activity (in words) [4]: higher selectivity of pharmacological activity than PGI2
IC50 (platelet aggregation [1]; 0 hr): 0.14 µg/mL
IC50 (platelet aggregation [1]; [7]): 0.12 µg/mL
ED20 (blood pressure [2]): 2.4 µg/kg
ED10 (heart rate): > 10 µg/kg
half-life [3]: ~22 days
Number of nests which metastasized to the lungs (measured on the 20th day) (Lewis lung carcinoma; [8]): 25.6 ± 12.0
Weight of the primary next portion measured on the 12th day (Lewis lung carcinoma; [8]): 2.17 ± 0.86 g
metastasis of the primary nest to the lungs (in words) (Lewis lung carcinoma; Table 6): inhibited metastasis of the primary nest to the lungs
primary nest (in words) (Lewis lung carcinoma; Table 6): reduced the primary nest

CCCCCC(O)C=CC1C(O)CC2OC(=CCCCC(=O)O)C(F)C21 (stereo not drawn) [Compound 688, sodium salt of 7-fluoro-PGI2]
P-ED20 / platelet IC50 [4]: 14.0
selectivity of pharmacological activity (in words) [4]: higher selectivity of pharmacological activity than PGI2
inhibition (%) (rate of platelet aggregation inhibition) (platelet aggregation [5]): 87.5 ± 5.8%
platelet aggregation inhibiting activity (in words) (platelet aggregation [5]; Table 5, 3 mg/kg i.d., rats): stronger platelet aggregating activity than the sodium salt of PGI2
IC50 (platelet aggregation [1]; 0 hr): 0.05 µg/mL
IC50 (platelet aggregation [1]; [7]): 0.05 µg/mL
ED20 (blood pressure [2]): 0.7 µg/kg
mean blood pressure (blood pressure [6]; 1 mg/kg i.d., 0 min): 102 ± 4
mean blood pressure (blood pressure [6]; 1 mg/kg i.d., 5 min): 101 ± 4
mean blood pressure (blood pressure [6]; 1 mg/kg i.d., 10 min): 97 ± 3
mean blood pressure (blood pressure [6]; 1 mg/kg i.d., 15 min): 99 ± 4
mean blood pressure (blood pressure [6]; 1 mg/kg i.d., 30 min): 104 ± 3
mean blood pressure (blood pressure [6]; 1 mg/kg i.d., 60 min): 100 ± 4
mean blood pressure (blood pressure [6]; 1 mg/kg i.d., 120 min): 100 ± 2
mean blood pressure (blood pressure [6]; 3 mg/kg i.d., 0 min): 104 ± 2
mean blood pressure (blood pressure [6]; 3 mg/kg i.d., 5 min): 100 ± 3
mean blood pressure (blood pressure [6]; 3 mg/kg i.d., 10 min): 100 ± 3
mean blood pressure (blood pressure [6]; 3 mg/kg i.d., 15 min): 103 ± 2
mean blood pressure (blood pressure [6]; 3 mg/kg i.d., 30 min): 102 ± 3
mean blood pressure (blood pressure [6]; 3 mg/kg i.d., 60 min): 102 ± 2
mean blood pressure (blood pressure [6]; 3 mg/kg i.d., 120 min): 100 ± 2
ED10 (heart rate): 1.9 µg/kg

CCCCCC(O)C=CC1C(O)CC2OC(=CCCCC(=O)O)CC21 (stereo not drawn) [Sodium salt of PGI2, reference compound]
inhibition (%) (rate of platelet aggregation inhibition) (platelet aggregation [5]): 56.5 ± 11.3%
mean blood pressure (blood pressure [6]; 3 mg/kg i.d., 0 min): 109 ± 1
mean blood pressure (blood pressure [6]; 3 mg/kg i.d., 5 min): 84 ± 3
mean blood pressure (blood pressure [6]; 3 mg/kg i.d., 10 min): 101 ± 4
mean blood pressure (blood pressure [6]; 3 mg/kg i.d., 15 min): 110 ± 2
mean blood pressure (blood pressure [6]; 3 mg/kg i.d., 30 min): 109 ± 1
mean blood pressure (blood pressure [6]; 3 mg/kg i.d., 60 min): 107 ± 2
mean blood pressure (blood pressure [6]; 3 mg/kg i.d., 120 min): 103 ± 2
blood pressure lowering activity (in words) (blood pressure [6]; Table 4, i.d., conscious rats): stronger blood pressure lowering activity than the compound No. 688 of the present invention (especially five minutes later)
